Row | SMILES | logP
1 | CCCCCCCCCCCCCc1ccc(O)cc1O | 6.84
2 | CCCCCCCCCCCCCc1ccccc1O | 8.61
3 | CCCCCCCCCCCc1ccc(O)cc1 | 7.18
4 | CCCCCc1ccc(O)c(O)c1 | 3.11
5 | CCCCCCCCCCCCc1ccc(O)cc1 | 7.91
6 | CCCCCCCCCCCc1cccc(O)c1O | 6.3
7 | CCCCCCCCCCCc1ccc(O)c(O)c1 | 6.97
8 | CCCCCCCCCCCc1ccccc1O | 7.17
9 | CCCCCCCCCc1ccc(O)cc1 | 5.76
10 | CCCCCCCCCCCc1cccc(O)c1 | 6.98
11 | CCCCCCCCCCCCCc1cccc(O)c1O | 7.75
12 | CCCCCCCCCCCCCCCc1ccc(O)cc1O | 8.29
13 | CCCCCCCCCc1ccccc1O | 5.76
14 | CCCCCCCCCc1cccc(O)c1 | 5.61

Reference: the OPERA property sets (Mansouri et al. 2018)
